Residues, ends and D or L forms follow the SMILES beside them. *: point of attachment. Cbz = O=C(OCc1ccccc1)*; CHN2 = [N-]=[N+]=C*; tBu = CC(C)(C)*
Assays:
Ctr1 cleavage = Ctr1 cleavage in wild type and Cathepsin L-/- mouse embryonic fibroblasts, anti-Ctr1 immunoblot; type: cell-based; settings: 10 μM, 16 hours, immunoblot (FIG. 7)
Description: Mouse embryonic fibroblasts from wild type and CatL^−/− littermates were cultured in medium supplemented with 10% fetal bovine serum and treated with DMSO or 10 μM of the cell permeable cysteine protease inhibitor E64d and harvested 16 hours later. Total proteins were isolated from the cells by homogenizing cells in ice cold PBS supplemented with 1% Triton-X, 0.1% SDS, and 1 mM EDTA. Cell debris was removed by centrifugation and the total amounts of soluble proteins were quantified in each sample. Equal amounts of proteins were separated on tris/glycine gradient gel, transferred to nitrocellulose membrane and blocked with 5% non-fat milk in Tris buffered saline supplemented with 0.05% Tween (TBST) for 1 h. Membranes were incubated with anti-Ctr1 antibody (1:1000) followed by anti-rabbit-HRP coupled antibody (1:5000) and bands detected by enhanced chemiluminescent substrate. Anti-Tubulin antibody was used as loading control.
Lanes 1 and 2 are duplicate samples from untreated wild type cells and lanes 5 and 6 are duplicate samples from untreated Cathepsin L knock out cells.

[1] = test system: human Ctr1 protein containing the proline to alanine substitution at position 25 (Ctr1^P25A); assay: Ctr1^P25A cleavage protection in stably transfected Ctr1-/- mouse embryonic fibroblasts, anti-Ctr1 immunoblot; type: cell-based; settings: Ctr1-/- MEFs expressing human Ctr1^P25A, 10 μM, 16 hours, immunoblot (FIG. 8)
Description: Mouse embryonic fibroblasts from Ctr1^−/− embryos were stably transfected with plasmids expressing either the wild type human Ctr1 protein or the human Ctr1 protein containing the proline to alanine substitution at position 25 (Ctr1^P25A). Cells were cultured in medium supplemented with 20% fetal bovine serum and treated with DMSO or 10 μM cysteine protease […], Z-FY(t-Bu)-DMK and harvested 16 hours later. Total proteins were isolated from the cells by homogenizing cells in ice cold PBS supplemented with 1% Triton-X, 0.1% SDS, and 1 mM EDTA. Cell debris was removed by centrifugation and the total amounts of soluble proteins were quantified in each sample. Equal amounts of proteins were separated on tris/glycine gradient gel, transferred to nitrocellulose membrane and blocked with 5% non-fat milk in Tris buffered saline supplemented with 0.05% Tween (TBST) for 1 h. Membranes were incubated with anti-Ctr1 antibody (1:1000) followed by anti-rabbit-HRP coupled antibody (1:5000) and bands detected by enhanced chemiluminescent substrate. Anti-Actin antibody was used as loading control.

SMILES | levels of cleaved Ctr1 (Ctr1 cleavage; Cathepsin L knock out MEFs) | levels of cleaved Ctr1 (Ctr1 cleavage; wild type MEFs) | reduction in full length form of Ctr1^P25A [1]
CCOC(=O)[C@H]1O[C@@H]1C(=O)N[C@@H](CC(C)C)C(=O)NCCC(C)C (relative stereo) [E64d, (2S,3S)-trans-Epoxysuccinyl-L-leucylamido-3-methylbutane ethyl ester] | not Cathepsin L knock out cells | dramatic reduction in the levels of cleaved Ctr1 | 
CC(C)(C)Oc1ccc(CC(NC(=O)C(Cc2ccccc2)NC(=O)OCc2ccccc2)C(=O)C=[N+]=[N-])cc1 (stereo not drawn) [Z-FY(t-Bu)-DMK, benzyl (1-((1-(4-(tert-butoxy)phenyl)-4-diazo-3-oxobutan-2-yl)amino)-1-oxo-3-phenylpropan-2-yl)carbamate] (Cbz-Phe-Tyr(tBu)-CHN2; configuration not given here) |  |  | can be alleviated by treatment with Cathepsin L inhibitors

— patent US20170037471A1, “METHODS FOR DIAGNOSING & TREATING COPPER-DEPENDENT DISEASES” (Duke University, priority 2013, published 2017)
